Literature values as cited in patent US20140371717A1, “DRUG DELIVERY MEDICAL DEVICE” (Micell Technologies, Inc., priority 2011, published 2014).

What was measured:
[1] = biological target: FKBP12 (Homo sapiens, UniProt P62942)
[2] = value in μM

Chain of FKBP12 (P62942 whole entry, species assumed): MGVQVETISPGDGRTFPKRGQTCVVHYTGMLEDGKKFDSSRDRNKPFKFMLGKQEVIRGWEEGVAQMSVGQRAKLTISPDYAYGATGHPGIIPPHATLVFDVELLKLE

FKBP12 binding [1] [nM] | FKBP12 binding (nM) [1] | SMILES | Antiproliferative potency (nM) [2]
1.8 to 2.6 |  | CO[C@H]1C[C@@H]2CC[C@@H](C)[C@@](O)(O2)C(=O)C(=O)N2CCCC[C@H]2C(=O)O[C@H]([C@H](C)C[C@@H]2CC[C@@H](OCCO)[C@H](OC)C2)CC(=O)[C@H](C)/C=C(\C)[C@@H](O)[C@@H](OC)C(=O)[C@H](C)C[C@H](C)/C=C/C=C/C=C/1C [Everolimus, 40-O-(2-Hydroxyethyl)rapamycin] | 
 | about 1.2 nM | CC[C@@H]1/C=C(\C)C[C@H](C)C[C@H](OC)[C@H]2O[C@@](O)(C(=O)C(=O)N3CCCC[C@H]3C(=O)O[C@H](/C(C)=C/[C@@H]3CC[C@H](Cl)[C@H](OC)C3)[C@H](C)[C@@H](O)CC1=O)[C@H](C)C[C@@H]2OC [Pimecrolimus] | about 1 μM
0.2 to 0.4 |  | C=CC[C@@H]1/C=C(\C)C[C@H](C)C[C@H](OC)[C@H]2O[C@@](O)(C(=O)C(=O)N3CCCC[C@H]3C(=O)O[C@H](/C(C)=C/[C@@H]3CC[C@@H](O)[C@H](OC)C3)[C@H](C)[C@@H](O)CC1=O)[C@H](C)C[C@@H]2OC [Tacrolimus] | 
 | about the same as Sirolimus | CO[C@H]1C[C@@H]2CC[C@@H](C)[C@@](O)(O2)C(=O)C(=O)N2CCCC[C@H]2C(=O)O[C@H]([C@H](C)C[C@@H]2CC[C@@H](OC(=O)C(C)(CO)CO)[C@H](OC)C2)CC(=O)[C@H](C)/C=C(\C)[C@@H](O)[C@@H](OC)C(=O)[C@H](C)C[C@H](C)/C=C/C=C/C=C/1C [Temsirolimus, 42-[3-hydroxy-2-(hydroxymethyl)-2-methylpropanoate]rapamycin] | 
2.0 to 3.2 |  | CO[C@H]1C[C@@H]2CC[C@@H](C)[C@@](O)(O2)C(=O)C(=O)N2CCCC[C@H]2C(=O)O[C@H]([C@H](C)C[C@@H]2CC[C@H](n3cnnn3)[C@H](OC)C2)CC(=O)[C@H](C)/C=C(\C)[C@@H](O)[C@@H](OC)C(=O)[C@H](C)C[C@H](C)/C=C/C=C/C=C/1C [Zotarolimus] | 
